Data on eleven molecules can be found in patent US11655235B2, “Pyrrolidine and piperidine compounds” (YUHAN CORPORATION, priority 2019, dated 2023).

What all share (assay type): biochemical
One assay concerns the target T1, recombinant human DPP7 (Homo sapiens, UniProt Q9UHL4).
T1 construct: purchased R&D Systems
Kind of assay: DPP7 inhibition, fluorogenic substrate Lys-Pro-AMC. Conditions: recombinant human DPP7. In a few lines: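 Inhibitors are titrated in an 8-point series into the enzyme's assay buffer (DMSO no more than 0.5%). Substrate cleavage at 25 °C is followed by fluorescence, excitation 380 nm and emission 460 nm. IC50 values come from a four-variable logistic model.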

The target of assay [1] is T2, Recombinant human FAP (Homo sapiens, UniProt Q12884).
T2 construct: purchased R&D systems
T2 sequence (Q12884 1-760): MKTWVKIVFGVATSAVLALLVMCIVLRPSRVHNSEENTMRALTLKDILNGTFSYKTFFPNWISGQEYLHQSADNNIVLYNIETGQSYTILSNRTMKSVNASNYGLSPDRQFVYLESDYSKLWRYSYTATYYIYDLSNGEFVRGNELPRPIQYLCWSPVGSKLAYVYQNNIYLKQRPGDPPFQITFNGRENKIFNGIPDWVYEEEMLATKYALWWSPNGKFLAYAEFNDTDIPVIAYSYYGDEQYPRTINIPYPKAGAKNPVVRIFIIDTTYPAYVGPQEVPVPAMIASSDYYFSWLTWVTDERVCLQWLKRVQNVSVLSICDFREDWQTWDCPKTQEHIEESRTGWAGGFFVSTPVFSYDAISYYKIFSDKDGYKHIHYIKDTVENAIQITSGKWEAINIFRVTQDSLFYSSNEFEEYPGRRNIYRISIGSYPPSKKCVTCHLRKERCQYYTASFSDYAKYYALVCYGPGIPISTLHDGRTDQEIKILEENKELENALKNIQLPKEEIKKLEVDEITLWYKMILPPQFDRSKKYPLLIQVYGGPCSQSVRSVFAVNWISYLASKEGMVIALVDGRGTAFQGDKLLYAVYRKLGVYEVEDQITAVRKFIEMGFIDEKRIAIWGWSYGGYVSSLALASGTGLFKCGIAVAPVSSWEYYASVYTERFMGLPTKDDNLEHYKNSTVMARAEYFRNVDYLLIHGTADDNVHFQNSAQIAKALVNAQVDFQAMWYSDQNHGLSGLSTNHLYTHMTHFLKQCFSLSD
As to the kind of experiment: FAP FRET assay, FGF21-sequence FRET peptide substrate. The note with it: FRET peptide with human FGF21 sequence, 6 μM, 37° C. In a few lines: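 FRET peptide bearing human FGF21 sequence (6 μM final) cleaved by 10 ng recombinant human FAP at 37° C in HEPES pH 7.2 buffer with NaCl, BSA and EDTA, DMSO up to 0.1%. Signal-rate decrease versus uninhibited control fitted to a four-variable logistic model for IC50.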

For the next assay, the target named is T3, recombinant human DPP9 (Homo sapiens, UniProt Q86TI2).
T3 construct: purchased R&D Systems
Kind of assay: DPP9 inhibition, fluorogenic substrate H-Gly-Pro-AMC. Conditions: recombinant human DPP9. As to the method:
(§1) The compounds according to the present technology were evaluated in terms of the inhibitory effect on the activity of dipeptidyl peptidases including FAP by using a substrate producing fluorescent substances upon enzymatic decomposition. The test was conducted at 25° C. to get a final reaction volume of 100 μL in a 96 black well plate. […] Briefly, the test compounds were dissolved in dimethyl sulfoxide (DMSO) at a concentration of 20 mM and then subjected to serial dilution, thereby creating an 8 point curve. As for the control group, a 6 point curve created by serial dilution of Talabostat in the same buffer solution was used. Fluorescence intensity was measured using a microplate reader (Flexstation3, Molecular Devices) under the wavelength condition exciting at 380 nm and reading the emission at 460 nm. The inhibitory effect of the test compounds was measured as a decrease (%) in the signal rate as compared to the control group without any inhibitor. Data was fixed to a logistic model with four variables and IC50 value was calculated using GraphPad Prism program. As for recombinant human DPP4 (R&D Systems), 25 mM tris (pH 8.0) buffer as a buffer solution and H-Gly-Pro-AMC (Bachem) as a substrate were used. As for recombinant human DPP7 (R&D Systems), 25 mM MES (pH 6.0) buffer as a buffer solution and Lys-Pro-AMC (Bachem) as a substrate were used. As for recombinant human DPP8 (PBS Bioscience), as a buffer solution, a 10 mM tris (pH 7.4) buffer comprising 10 mM of magnesium chloride and 0.05% of Tween 20, and Z-Ala-Pro-AMC (BPS Bioscience) as a substrate were used. As for recombinant human DPP9 (R&D Systems), a 25 mM tris (pH 8.0) buffer as a buffer solution and H-Gly-Pro-AMC (Bachem) as a substrate were used. As for recombinant human PREP (R&D System), as a buffer solution, a 25 mM tris (pH 7.5) buffer comprising 250 mM sodium chloride and 2.5 mM DTT (Dithiolthreitol), and Z-Gly-Pro-AMC (Bachem) as a substrate were used. The evaluation was made by using 10 ng of DPP4, PDD7, and PREP, 20 ng of DPP8, and 50 ng of DPP9 based on the final reaction. In the evaluation of DPP4, the test compounds were subjected to serial dilution in a buffer under the condition containing up to 0.1% of DMSO. In the evaluation of DPP7, DPP8, DPP9, and PREP, the test compounds were subjected to serial dilution in each buffer under the condition containing up to 0.5% of DMSO.

A further assay concerns the target T4, recombinant human PREP (Homo sapiens, UniProt P48147).
T4 construct: purchased R&D System
T4 sequence (P48147 1-710): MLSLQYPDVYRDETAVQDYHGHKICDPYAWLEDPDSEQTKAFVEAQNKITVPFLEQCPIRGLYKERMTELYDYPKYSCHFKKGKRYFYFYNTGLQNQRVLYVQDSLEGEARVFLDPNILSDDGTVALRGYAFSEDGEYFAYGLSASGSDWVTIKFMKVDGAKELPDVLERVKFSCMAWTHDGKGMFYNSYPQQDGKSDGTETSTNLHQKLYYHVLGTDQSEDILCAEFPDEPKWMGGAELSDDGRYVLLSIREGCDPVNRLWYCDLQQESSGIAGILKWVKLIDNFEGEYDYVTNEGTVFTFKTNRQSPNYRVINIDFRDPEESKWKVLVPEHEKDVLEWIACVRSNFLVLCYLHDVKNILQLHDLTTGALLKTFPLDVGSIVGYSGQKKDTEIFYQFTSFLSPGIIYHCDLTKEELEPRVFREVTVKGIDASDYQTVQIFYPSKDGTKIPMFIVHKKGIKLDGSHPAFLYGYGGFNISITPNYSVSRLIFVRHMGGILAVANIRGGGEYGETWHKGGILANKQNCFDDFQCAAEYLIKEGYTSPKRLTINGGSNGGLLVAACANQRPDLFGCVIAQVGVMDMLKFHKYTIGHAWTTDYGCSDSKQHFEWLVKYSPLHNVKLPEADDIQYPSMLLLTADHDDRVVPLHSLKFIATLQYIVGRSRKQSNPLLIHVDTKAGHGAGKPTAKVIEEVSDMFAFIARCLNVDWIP
Kind of assay: PREP inhibition, fluorogenic substrate Z-Gly-Pro-AMC. The note with it: Inhibitory Activity (IC50, nM) PREP, recombinant human PREP. How it is done:
as §1

Another assay deals with DPP4 (Homo sapiens, UniProt P27487). Kind of assay: DPP4 inhibition, fluorogenic substrate H-Gly-Pro-AMC. On the set-up: purchased R&D Systems. The note with it: recombinant human DPP4.
Assay [2] addresses T2, Recombinant human FAP. Kind of assay: FAP inhibition, fluorogenic substrate Z-Gly-Pro-AMC. The note with it: recombinant human FAP, substrate Z-Gly-Pro-AMC. In a few lines:
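Eight-point compound dilutions (≤0.1% DMSO) were incubated at 25° C with 10 ng recombinant human FAP in Tris pH 7.5/1 M NaCl/BSA buffer and Z-Gly-Pro-AMC. Inhibition was taken as % drop in fluorescence rate (380/460 nm) against uninhibited control; IC50 came from a four-parameter logistic fit.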

DPP4, sequence (P27487 whole entry): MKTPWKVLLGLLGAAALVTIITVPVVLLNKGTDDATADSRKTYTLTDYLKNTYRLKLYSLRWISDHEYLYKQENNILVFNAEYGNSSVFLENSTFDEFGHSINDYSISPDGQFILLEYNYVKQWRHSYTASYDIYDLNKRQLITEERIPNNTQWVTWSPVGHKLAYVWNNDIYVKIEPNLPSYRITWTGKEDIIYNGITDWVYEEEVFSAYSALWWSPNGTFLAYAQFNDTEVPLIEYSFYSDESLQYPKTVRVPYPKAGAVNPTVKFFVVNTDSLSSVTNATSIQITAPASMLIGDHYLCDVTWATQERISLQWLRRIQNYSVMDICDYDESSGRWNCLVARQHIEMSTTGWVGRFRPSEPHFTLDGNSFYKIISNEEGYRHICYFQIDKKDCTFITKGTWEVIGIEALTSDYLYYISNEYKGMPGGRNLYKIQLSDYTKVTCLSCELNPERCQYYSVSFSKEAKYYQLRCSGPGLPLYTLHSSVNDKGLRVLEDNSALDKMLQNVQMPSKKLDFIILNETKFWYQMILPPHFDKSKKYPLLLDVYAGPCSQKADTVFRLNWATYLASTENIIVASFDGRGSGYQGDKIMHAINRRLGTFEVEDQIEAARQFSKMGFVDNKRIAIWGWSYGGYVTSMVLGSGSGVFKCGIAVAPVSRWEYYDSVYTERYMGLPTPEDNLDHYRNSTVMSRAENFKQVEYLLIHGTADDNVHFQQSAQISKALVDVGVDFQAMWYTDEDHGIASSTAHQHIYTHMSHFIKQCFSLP
T3 sequence (Q86TI2 whole entry): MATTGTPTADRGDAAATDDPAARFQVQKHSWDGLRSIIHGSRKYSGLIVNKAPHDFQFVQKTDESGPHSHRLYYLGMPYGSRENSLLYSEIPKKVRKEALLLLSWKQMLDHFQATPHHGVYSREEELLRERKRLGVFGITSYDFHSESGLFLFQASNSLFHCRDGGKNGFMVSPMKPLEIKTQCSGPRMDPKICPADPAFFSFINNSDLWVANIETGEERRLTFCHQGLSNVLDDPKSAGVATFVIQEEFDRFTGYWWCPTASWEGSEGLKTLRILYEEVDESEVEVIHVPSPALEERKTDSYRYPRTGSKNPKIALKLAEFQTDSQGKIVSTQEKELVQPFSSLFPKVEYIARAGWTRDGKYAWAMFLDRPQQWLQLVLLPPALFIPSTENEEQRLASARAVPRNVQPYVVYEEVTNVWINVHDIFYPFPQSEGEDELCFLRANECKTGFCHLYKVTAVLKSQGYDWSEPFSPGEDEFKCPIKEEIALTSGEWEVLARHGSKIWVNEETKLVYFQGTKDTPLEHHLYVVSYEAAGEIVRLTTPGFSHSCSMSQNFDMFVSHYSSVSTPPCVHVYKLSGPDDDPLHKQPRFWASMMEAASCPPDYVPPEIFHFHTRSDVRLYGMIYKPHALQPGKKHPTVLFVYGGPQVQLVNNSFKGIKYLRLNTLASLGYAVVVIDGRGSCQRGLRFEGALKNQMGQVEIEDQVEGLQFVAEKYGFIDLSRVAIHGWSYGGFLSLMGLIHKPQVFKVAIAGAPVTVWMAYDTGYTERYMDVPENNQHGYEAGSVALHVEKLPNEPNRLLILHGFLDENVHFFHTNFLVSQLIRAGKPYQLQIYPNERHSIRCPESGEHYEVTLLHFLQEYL

What is called IC50 is the concentration that inhibits the measured activity by half. As to `N#C[C@@H]1C[C@H](F)CN1C(=O)CN1CCC(Nc2cccc3ncsc23)CC1` [Example 372, (2S,4S)-1-[2-[4-(1,3-benzothiazol-7-ylamino)-1-piperidyl]acetyl]-4-fluoro-pyrrolidine-2-carbonitrile], the IC50 on recombinant human DPP7 stood at 645 nM; at Recombinant human FAP [1], 51.6 nM; at recombinant human DPP9, 945 nM; at recombinant human PREP it was 2000 nM; at DPP4, 1650 nM.
As for `CN(Cc1ccccc1)C(=O)c1ccc(N[C@H]2CCN(CC(=O)N3C[C@@H](F)C[C@H]3C#N)C2)c2cccnc12` [Example 285, N-benzyl-N-methyl-5-[[(3S)-1-[2-oxo-2-[(2S,4S)-2-cyano-4-fluoro-pyrrolidin-1-yl]ethyl]pyrrolidin-3-yl]amino]quinoline-8-carboxamide], the IC50 on recombinant human DPP7 came out at 333 nM; on Recombinant human FAP [1] it was 3.9 nM; on recombinant human DPP9, 1080 nM; on recombinant human PREP, 2450 nM; at DPP4, 2500 nM.
`N#C[C@@H]1CCCN1C(=O)CN1CC[C@@H](Nc2ccc(C(F)(F)F)c3ncccc23)C1` [Example 201, (2S)-1-[2-[(3R)-3-[[8-(trifluoromethyl)-5-quinolyl]amino]pyrrolidin-1-yl]acetyl]pyrrolidine-2-carbonitrile]: the IC50 on recombinant human DPP7 is 3910 nM; on Recombinant human FAP [1], 1.3 nM; on recombinant human PREP it was 9150 nM; on DPP4, 26300 nM.
With `N#Cc1ccc(N[C@H]2CCN(CC(=O)N3C[C@@H](F)C[C@H]3C#N)C2)c2cccnc12` [Example 267, 5-[[(3S)-1-[2-oxo-2-[(2S,4S)-2-cyano-4-fluoro-pyrrolidin-1-yl]ethyl]pyrrolidin-3-yl]amino]quinoline-8-carbonitrile], the IC50 on recombinant human DPP7 stood at 3160 nM; at Recombinant human FAP [1] it was 1.5 nM; at recombinant human PREP, 835 nM; at DPP4, 2570 nM.
On to `N#C[C@@H]1C[C@H](F)CN1C(=O)CN1CCC(Nc2cc(C(F)(F)F)c3ncccc3c2)CC1` [Example 377, (2S,4S)-4-fluoro-1-[2-[4-[[8-(trifluoromethyl)-6-quinolyl]amino]-1-piperidyl]acetyl]pyrrolidine-2-carbonitrile], for which the IC50 amounted to 178 nM at recombinant human DPP7, 12.4 nM at Recombinant human FAP [1], 1400 nM at recombinant human PREP and 6610 nM at DPP4.
Take `N#Cc1ccc2c(OC3CCN(CC(=O)N4C[C@@H](F)C[C@H]4C#N)CC3)cccc2n1` [Example 417, 5-[[1-[2-oxo-2-[(2S,4S)-2-cyano-4-fluoro-pyrrolidin-1-yl]ethyl]-4-piperidyl]oxy]quinoline-2-carbonitrile]: the values for the IC50 on Recombinant human FAP [1], on Recombinant human FAP [2] and at DPP4 were 6.5 nM, 3.3 nM and 5470 nM, respectively.
As to `Cc1ccc(NC2CCN(CC(=O)N3C[C@@H](F)C[C@H]3C#N)CC2)c2cccnc12` [Example 331, (2S,4S)-4-fluoro-1-[2-[4-[(8-methyl-5-quinolyl)amino]-1-piperidyl]acetyl]pyrrolidine-2-carbonitrile], the IC50 at Recombinant human FAP [1] is 6.5 nM; at Recombinant human FAP [2], 3.8 nM; at DPP4, 5110 nM.
Consider `N#C[C@@H]1C[C@H](F)CN1C(=O)CN1CCC(Nc2ccc(F)c3ncccc23)CC1` [Example 330, (2S,4S)-4-fluoro-1-[2-[4-[(8-fluoro-5-quinolyl)amino]-1-piperidyl]acetyl]pyrrolidine-2-carbonitrile], for which the results for the half-inhibitory concentration (IC50) on Recombinant human FAP [1], on Recombinant human FAP [2] and at DPP4 were 6.3 nM, 2.8 nM and 3290 nM, respectively.
In the case of `N#C[C@@H]1CCCN1C(=O)CN1CC[C@H](Nc2cccc3ncc(F)cc23)C1` [Example 234, (2S)-1-[2-[(3S)-3-[(3-fluoro-5-quinolyl)amino]pyrrolidin-1-yl]acetyl]pyrrolidine-2-carbonitrile], the half-maximal inhibitory concentration (IC50) is 6080 nM at recombinant human DPP7, 1.6 nM on Recombinant human FAP [1], 1.3 nM at Recombinant human FAP [2] and 63600 nM on DPP4.
With `COc1ccc(N[C@H]2CCN(CC(=O)N3CCC[C@H]3C#N)C2)c2cccnc12` [Example 243, (2S)-1-[2-[(3S)-3-[(8-methoxy-5-quinolyl)amino]pyrrolidin-1-yl]acetyl]pyrrolidine-2-carbonitrile], the IC50 was found to be 3240 nM at recombinant human DPP7, 4 nM at Recombinant human FAP [1], 2.6 nM at Recombinant human FAP [2] and 16900 nM at DPP4.
Regarding `N#C[C@@H]1C[C@H](F)CN1C(=O)CN1CCC(Nc2ccnc3c(Cl)cccc23)CC1` [Example 344, (2S,4S)-1-[2-[4-[(8-chloro-4-quinolyl)amino]-1-piperidyl]acetyl]-4-fluoro-pyrrolidine-2-carbonitrile], the 50% inhibitory concentration (IC50) on recombinant human DPP7 is 4610 nM; at Recombinant human FAP [1] it was 6 nM; at DPP4, ≥ 100000 nM.
